Measurements reported in patent US8906930B2, “Quinazoline derivatives” (Merck Patent GmbH, priority 2009, dated 2014).

biological target: T1, Recombinant human HSP90α (Homo sapiens, UniProt P07900); assay: HSP90 radioligand filter binding test ([3H]17AAG competition); conditions: radioligand [3H]17AAG 0.08 μM; HSP90 1.5 μg/assay; 22° C., 30 min; read-out: HSP90 inhibition IC50
T1 construct: host or cells: E. coli
From the text: The binding of geldanamycin or 17-allylamino-17-demethoxygeldanamycin (17AAG) to HSP90 and competitive inhibition thereof can be utilised in order to determine the inhibitory activity of the compounds according to the invention (Carreras et al. 2003, Chiosis et al. 2002).
In the specific case, a radioligand filter binding test is used. The radioligand used here is tritium-labelled 17-allylaminogeldanamycin, [3H]17AAG. This filter binding test allows a targeted search for inhibitors which interfere with the ATP binding site.
Recombinant human HSP90α (E. coli expressed, 95% purity);
[3H]17AAG (17-allylaminogeldanamycin, [allylamino-2,3-^3H. Specific activity: 1.11×10^12 Bq/mmol (Moravek, MT-1717);
HEPES filter buffer (50 mM HEPES, pH 7.0, 5 mM MgCl2, BSA 0.01%) Multiscreen FB (1 μm) filter plate (Millipore, MAFBNOB 50).
The 96-well microtitre filter plates are firstly irrigated and coated with 0.1% of polyethylenimine.
The test is carried out under the following conditions:
Reaction temperature 22° C.
Reaction time: 30 min., shaking at 800 rpm
50 mM HEPES HCl, pH 7.0, 5 mM MgCl2, 0.01% (w/v) of BSA
At the end of the reaction, the supernatant in the filter plate is removed by suction with the aid of a vacuum manifold (Multiscreen Separation System, Millipore), and the filter is washed twice.
The filter plates are then measured in a beta counter (Microbeta, Wallac) with scintillator (Microscint 20, Packard).
“% of control” is determined from the “counts per minutes” values, and the IC-50 value of a compound is calculated therefrom.

Structure (SMILES)	IC50 [µM]
CCOC(=O)Cc1ccc2nc(N)nc(C(=O)N3Cc4ccccc4C3)c2c1 [Compound A1, Ethyl 2-[2-amino-4-(isoindoline-2-carbonyl)quinazolin-6-yl]acetate]	0.01 to 1
Nc1nc(C(=O)N2Cc3ccccc3C2)c2cc(CC(=O)O)ccc2n1 [Compound A2, 2-[2-Amino-4-(isoindoline-2-carbonyl)quinazolin-6-yl]acetic acid]	1 to 10
NC(=O)Cc1ccc2nc(N)nc(C(=O)N3Cc4ccccc4C3)c2c1 [Compound A3, 2-[2-amino-4-(isoindoline-2-carbonyl)quinazolin-6-yl]acetamide]	1 to 10
NC(=O)C(CCC(F)F)c1ccc2nc(N)nc(C(=O)N3Cc4ccccc4C3)c2c1 (stereo not drawn) [Compound A4]	0.01 to 1
NC(=O)C1(c2ccc3nc(N)nc(C(=O)N4Cc5ccccc5C4)c3c2)CCC1 [Compound A5, 1-[2-amino-4-(isoindoline-2-carbonyl)quinazolin-6-yl]cyclobutane-carboxamide]	0.01 to 1
CCNC(=O)Cc1ccc2nc(N)nc(C(=O)N3Cc4ccccc4C3)c2c1 [Compound A6, 2-[2-amino-4-(isoindoline-2-carbonyl)quinazolin-6-yl]-N-ethylacetamide]	1 to 10
CC(C)(C)NC(=O)Cc1ccc2nc(N)nc(C(=O)N3Cc4ccccc4C3)c2c1 [Compound A7, 2-[2-amino-4-(isoindoline-2-carbonyl)quinazolin-6-yl]-N-tert-butylacetamide]	1 to 10
CCN(CC)C(=O)Cc1ccc2nc(N)nc(C(=O)N3Cc4ccccc4C3)c2c1 [Compound A8, 2-[2-amino-4-(isoindoline-2-carbonyl)quinazolin-6-yl]-N,N-diethylacetamide]	1 to 10
CN(C)C(=O)Cc1ccc2nc(N)nc(C(=O)N3Cc4ccccc4C3)c2c1 [Compound A9, 2-[2-Amino-4-(isoindoline-2-carbonyl)quinazolin-6-yl]-N,N-dimethylacetamide]	1 to 10
CCN(C)C(=O)Cc1ccc2nc(N)nc(C(=O)N3Cc4ccccc4C3)c2c1 [Compound A10, 2-[2-Amino-4-(isoindoline-2-carbonyl)quinazolin-6-yl]-N-ethyl-N-methylacetamide]	1 to 10
CN(CCO)C(=O)Cc1ccc2nc(N)nc(C(=O)N3Cc4ccccc4C3)c2c1 [Compound A11, 2-[2-Amino-4-(isoindoline-2-carbonyl)quinazolin-6-yl]-N-(2-hydroxyethyl)-N-methylacetamide]	1 to 10
CCN(CCO)C(=O)Cc1ccc2nc(N)nc(C(=O)N3Cc4ccccc4C3)c2c1 [Compound A12, 2-[2-Amino-4-(isoindoline-2-carbonyl)quinazolin-6-yl]-N-(2-hydroxyethyl)-N-ethylacetamide]	1 to 10
Nc1nc(C(=O)N2Cc3ccccc3C2)c2cc(CC(=O)N3CCCC3)ccc2n1 [Compound A13, 2-[2-Amino-4-(isoindoline-2-carbonyl)quinazolin-6-yl]-1-pyrrolidin-1-ylethanone]	1 to 10
CC1CCCN1C(=O)Cc1ccc2nc(N)nc(C(=O)N3Cc4ccccc4C3)c2c1 (stereo not drawn) [Compound A14, 2-[2-Amino-4-(isoindoline-2-carbonyl)quinazolin-6-yl]-1-(2-methylpyrrolidin-1-yl)ethanone]	1 to 10
CC1CCC(C)N1C(=O)Cc1ccc2nc(N)nc(C(=O)N3Cc4ccccc4C3)c2c1 (stereo not drawn) [Compound A15, 2-[2-Amino-4-(isoindoline-2-carbonyl)quinazolin-6-yl]-1-(2,5-dimethylpyrrolidin-1-yl)ethanone]	1 to 10
CNC(=O)Cc1ccc2nc(N)nc(C(=O)N3Cc4ccccc4C3)c2c1 [Compound A16, 2-[2-Amino-4-(isoindoline-2-carbonyl)quinazolin-6-yl]-N-methylacetamide]	1 to 10
CN1CCN(C(=O)Cc2ccc3nc(N)nc(C(=O)N4Cc5ccccc5C4)c3c2)CC1 [Compound A17, 2-[2-Amino-4-(isoindoline-2-carbonyl)quinazolin-6-yl]-1-(4-methylpiperazin-1-yl)ethanone]	1 to 10
Nc1nc(C(=O)N2Cc3ccccc3C2)c2cc(CC(=O)N3CCNCC3)ccc2n1 [Compound A18, 2-[2-amino-4-(isoindoline-2-carbonyl)quinazolin-6-yl]-1-piperazin-1-ylethanone]	> 10

Structure (SMILES)	IC50 [µM]
CN(Cc1cncn1C)C(=O)Cc1ccc2nc(N)nc(C(=O)N3Cc4ccccc4C3)c2c1 [Compound A19]	1 to 10
CC(C)(C)NC(=O)C1(c2ccc3nc(N)nc(C(=O)N4Cc5ccccc5C4)c3c2)CC1 [Compound A20, 1-[2-Amino-4-(isoindoline-2-carbonyl)quinazolin-6-yl]-N-tert-butylcyclopropanecarboxamide]	0.01 to 1
CCNC(=O)C1(c2ccc3nc(N)nc(C(=O)N4Cc5ccccc5C4)c3c2)CC1 [Compound A21, 1-[2-Amino-4-(isoindoline-2-carbonyl)quinazolin-6-yl]-N-ethylcyclopropanecarboxamide]	0.01 to 1
CN(C)C(=O)C1(c2ccc3nc(N)nc(C(=O)N4Cc5ccccc5C4)c3c2)CC1 [Compound A22, 1-[2-Amino-4-(isoindoline-2-carbonyl)quinazolin-6-yl]-N,N-dimethylcyclopropanecarboxamide]	1 to 10
CCN(C)C(=O)C1(c2ccc3nc(N)nc(C(=O)N4Cc5ccccc5C4)c3c2)CC1 [Compound A23, 1-[2-Amino-4-(isoindoline-2-carbonyl)quinazolin-6-yl]-N-ethyl-N-methylcyclopropanecarboxamide]	1 to 10
CCN(CC)C(=O)C1(c2ccc3nc(N)nc(C(=O)N4Cc5ccccc5C4)c3c2)CC1 [Compound A24, 1-[2-Amino-4-(isoindoline-2-carbonyl)quinazolin-6-yl]-N,N-diethylcyclopropanecarboxamide]	1 to 10
CN(CCO)C(=O)C1(c2ccc3nc(N)nc(C(=O)N4Cc5ccccc5C4)c3c2)CC1 [Compound A25, 1-[2-Amino-4-(isoindoline-2-carbonyl)quinazolin-6-yl]-N-(2-hydroxyethyl)-N-methylcyclopropanecarboxamide]	1 to 10
CCN(CCO)C(=O)C1(c2ccc3nc(N)nc(C(=O)N4Cc5ccccc5C4)c3c2)CC1 [Compound A26, 1-[2-Amino-4-(isoindoline-2-carbonyl)quinazolin-6-yl]-N-(2-hydroxyethyl)-N-ethylcyclopropanecarboxamide]	1 to 10
Nc1nc(C(=O)N2Cc3ccccc3C2)c2cc(C3(C(=O)N4CCCC4)CC3)ccc2n1 [Compound A27, [2-Amino-6-[1-(pyrrolidine-1-carbonyl)cyclopropyl]quinazolin-4-yl]isoindolin-2-ylmethanone]	1 to 10
CCN(CCN(C)C)C(=O)C1(c2ccc3nc(N)nc(C(=O)N4Cc5ccccc5C4)c3c2)CC1 [Compound A28, 1-[2-Amino-4-(isoindoline-2-carbonyl)quinazolin-6-yl]-N-(2-dimethylaminoethyl)-N-ethylcyclopropanecarboxamide]	1 to 10
CC(C)(C)NC(=O)C1(c2ccc3nc(N)nc(C(=O)N4Cc5ccccc5C4)c3c2)CCC1 [Compound A29, 1-[2-Amino-4-(isoindoline-2-carbonyl)quinazolin-6-yl]-N-tert-butylcyclobutanecarboxamide]	0.01 to 1
CNC(=O)C1(c2ccc3nc(N)nc(C(=O)N4Cc5ccccc5C4)c3c2)CCC1 [Compound A31, 1-[2-Amino-4-(isoindoline-2-carbonyl)quinazolin-6-yl]-N-methylcyclobutanecarboxamide]	0.01 to 1
CCCNC(=O)C1(c2ccc3nc(N)nc(C(=O)N4Cc5ccccc5C4)c3c2)CCC1 [Compound A32, 1-[2-Amino-4-(isoindoline-2-carbonyl)quinazolin-6-yl]-N-propylcyclobutanecarboxamide]	0.01 to 1
NC(=O)CNC(=O)C1(c2ccc3nc(N)nc(C(=O)N4Cc5ccccc5C4)c3c2)CCC1 [Compound A33, 1-[2-Amino-4-(isoindoline-2-carbonyl)quinazolin-6-yl]-N-(2-amino-2-oxoethyl)cyclobutanecarboxamide]	0.01 to 1
CC(C)CNC(=O)C1(c2ccc3nc(N)nc(C(=O)N4Cc5ccccc5C4)c3c2)CCC1 [Compound A34, 1-[2-Amino-4-(isoindoline-2-carbonyl)quinazolin-6-yl]-N-isobutylcyclobutanecarboxamide]	0.01 to 1
CC(C)(C)NC(=O)C(C)(C)c1ccc2nc(N)nc(C(=O)N3Cc4ccccc4C3)c2c1 [Compound A35, 2-[2-Amino-4-(isoindoline-2-carbonyl)quinazolin-6-yl]-N-tert-butyl-2-methylpropanamide]	0.01 to 1
CCNC(=O)C(C)(C)c1ccc2nc(N)nc(C(=O)N3Cc4ccccc4C3)c2c1 [Compound A36, 2-[2-Amino-4-(isoindoline-2-carbonyl)quinazolin-6-yl]-N-ethyl-2-methylpropanamide]	0.01 to 1
CC(C)CNC(=O)C(C)(C)c1ccc2nc(N)nc(C(=O)N3Cc4ccccc4C3)c2c1 [Compound A37, 2-[2-Amino-4-(isoindoline-2-carbonyl)quinazolin-6-yl]-N-isobutyl-2-methylpropanamide]	0.01 to 1
